Measured values reported in patent publication US20260240865A1, “HARNESSING IKZF:BETA-CATENIN COMPLEXES IN THE TREATMENT OF LYMPHOCYTE ASSOCIATED DISEASES OR CONDITIONS” (Yale University, priority 2022, published 2026).
Entries after “also recorded” stand apart in the source; their conditions may differ.

Key:
[1] = tested on: B-lymphoid leukemia and lymphoma cells; experiment: Cell viability assay (Cell Titer Glo 2.0) with GSK3β inhibitors; format: cell-based, human
Method: Forty thousand patient-derived pre-B ALL cells or twenty thousand leukemia/lymphoma cell lines or ten thousand colon/lung cancer cells were seed in a volume of 80 μl in complete growth medium on 96-well plate. GSK3β3 inhibitors were added at the indicated concentration in a total volume of 100 μl. After treatment for 3 days, Cell Titer Glo 2.0 assays (Promega) were performed according to the manufacturer's instructions. Relative viability was calculated by measuring the luminescence value and normalizing it to baseline values of untreated cells.
(§1) Data are shown as mean±s.d. unless stated. Statistical analysis was performed by GraphPad Prism 7 (GraphPad Software Inc.) using unpaired two-tailed t test or log-rank test as indicated in figure legends. Significance was considered at P<0.05. Kaplan-Meier survival analysis was used to estimate OS with GraphPad Prism 7. The investigators were not blinded to allocation during experiments and outcome assessment. Experiments were repeated to ensure reproducibility of the observations.

[2] = tested on: β-catenin and MYC protein levels in B-ALL cells; experiment: Western blot of β-catenin and MYC after GSK3β inhibitor treatment; format: cell-based, human
Method: (§2) Cells were washed twice with ice-cold PBS and were lysed in CelLytic buffer (Sigma-Aldrich) supplemented with 1% protease inhibitor cocktail (Roche Diagnostics), 1% phosphatase inhibitor cocktail (EMD Millipore) and 1 mM PMSF (CST) on ice. 10-20 μg of cell lysates were separated on precast gels (Bio-Rad) and transferred on nitrocellulose membranes (Bio-Rad). After blocking for an hour in TBS-T with 2% BSA, membranes were probed with the appropriate primary antibodies listed in Table 6. Membranes were incubated with alkaline-phosphatase conjugated secondary antibodies (Invitrogen) and analyzed with Chemi Doc™ MP Imaging System (Bio-Rad). For fractionation experiment Nuclear and Cytoplasmic Extraction Reagent (Thermo Scientific) was used according to manufacturer's instructions.

[3] = tested on: refractory B-ALL PDX (LAX2); experiment: In vivo treatment of NSG mice bearing refractory B-ALL patient-derived xenografts
Method: Patient derived BCR-ABL1 ALL were labeled with firefly luciferase and selected by 25 μg ml^−1 blasticidin. 1 million PDX cells pre-treated with LY2090314 (10 μg ml^−1) or vehicle control for four hours. Cells were washed twice and then injected via the tail vein into sublethally irradiated (190 cGy) NSG mice (8-12 week-old, female). LY2090314 or vehicle control (dissolved in 5% DMSO, 45% PEG300 and PBS) were administered intraperitoneally at dose of 12.5 mg kg^−1 body weight twice every day for 20 times. The in vivo expansion and leukemia burden were monitored by luciferase bioimaging (Lago X; Accela). Briefly, D-luciferin (Promega) was dissolved in PBS and injected intraperitoneally at a dose of 2.5 mg per mouse 15 min before measuring luminescent. All mice were anesthetized by 5% isoflurane and continued during detection of light emission with 2% isoflurane introduced through a nose cone. When the mice get the signs of leukemia (hunched back, weight loss and inability to move), they were euthanized. Bone marrow and spleen were collected and flow cytometry analysis was performed to check leukemia engraftment.
as §1

β-catenin = experiment: Western blot of colonies from MDS-derived CD34+ GFP+ progenitor cells; format: cell-based, human; conditions: large colonies after 12 days
Method: as §2
For colony forming assays, 10,000 mouse BCR-ABL1 or NRAS^G12D were grown on MethoCult medium (M3231 or M3630 (with IL-7) respectively, StemCell Technologies) in 3-cm diameter dishes with an extra dish filled with water to prevent evaporation. […] For all colony forming experiments, colonies were imaged and counted using GelCount (Oxford Optronix) and 7-14 days after plating.
Non-targeted and targeted CD34^+ GFP^+ cells were stimulated in the presence of human cytokines and colony forming assays were performed. Large colonies were analyzed by Western blot after 12 days.

autoreactive B-cells = experiment: Genetic mouse models for SLE and RA treated with GSK3β inhibitor; format: in vivo; conditions: 4 injections i.p., 20 mg/kg, once full-blown disease has developed
Text: β-catenin activation in mouse models for SLE. As mouse models for SLE, lupus-prone B6.Sle1.Yaa mice will be studied, to be crossed on the B6Mb1^+/Crex Ctnnb1^ex3fl/fl model for B-cell-specific accumulation of β-catenin (FIG. 25). B6.Sle1.Yaa mice only require one backcross then intercross for Sle1 homozygosity, a large locus on chromosome 1 that promotes lupus susceptibility. One caveat of the B6.Sle1.Yaa model is that these are male mice, by contrast to female-dominant lupus in patients, since disease penetrance requires a second copy of Tlr7 on the Y chromosome (the Yaa allele). The B6.Sle1.Yaa faithfully replicates these outcomes as observed in other lupus-prone strains, including female predominant strains such as NZB/WF1 and MRL/1pr, or single gene models.
β-catenin activation in mouse models for RA. For collagen-induced arthritis (CIA) as a model for RA, disease is modeled on a B6 background with the B6 Mbl^+/Cre×Ctnnb1^ex3fl/fl allele using chicken type II collagen as an immunogen. […] Both models of inflammatory synovitis have been established, CIA induced in DBA1 and B6. The colonies are readily available for analyzing outcomes in these animals, including detailed analysis of B- and T-cell responses, and degree of synovitis and joint damage. […]

[4] = tested on: B-lymphoid leukemia and lymphoma cells; experiment: Cell viability assay (Cell Titer Glo 2.0) with GSK3β inhibitors; format: cell-based, human; remark: listed apart in the source
[5] = cited from earlier work

O=C1NC(=O)C(c2cnc3ccccn23)=C1c1cn2c3c(cc(F)cc13)CN(C(=O)N1CCCCC1)CC2 [LY2090314]
responses in B-ALL PDX with vs without IKZF1-deletion ([1]; 10 patient-derived xenografts, 5 with IKZF1-deletion): no significant differences
drug-responses in a larger panel of cell lines and PDX ([1]; B-ALL, B-cell lymphoma, myeloid leukemia, colon, lung cancer, 0 up to 200 nM, 3 days): profound responses in B-ALL and B-cell lymphoma cells in the absence of significant effects on myeloid and epithelial tumor cells
selective cell death / drug response ([1]; B-lymphoid vs myeloid and epithelial cells (PDX2, BV173, LAX2 vs THP1, SW620, H82), 3 days): induced cell death at low nanomolar concentrations selectively in B-lymphoid but not myeloid and epithelial cells; also recorded: B-cell selective activity at low nanomolar concentrations
responses in B-ALL PDX from chemotherapy-sensitive vs refractory/relapsed patients ([1]; FIG. 7D): did not affect responses
sensitivity of B-ALL cells with deletion of CTNNB1 ([1]; human B-ALL (BV173) gCTNNB1 vs gNT clones, 3 days): near-complete resistance
β-catenin accumulation and MYC suppression ([2]; B-ALL (PDX2) cells, 16 hours, FIGS. 7A, 7C, 18C): induced massive accumulation of β-catenin in parallel with acute suppression of MYC
MYC suppression in B-ALL cells with deletion of CTNNB1 ([2]; BV173, 20 nM, 16 hours): prevented suppression of MYC
β-catenin accumulation and MYC suppression in B-cell vs colon and lung cell lines ([2]; pre-B cell and mature B-cell lines, colon and lung cancer cell lines, FIG. 28A): induced rapid accumulation of β-catenin protein and suppression of MYC in Ikaros-expressing B-cell lines but not colon and lung cell lines
leukemia burden (bioluminescence imaging) ([3]; NSG mice with refractory B-ALL PDX, intraperitoneal, single agent vs vehicle): substantially reduced leukemia burden
overall survival ([3]; NSG mice with refractory B-ALL PDX, intraperitoneal, P=6.5E-05, n=9): significantly extended overall survival
leukemia-initiation potential ([3]; limiting doses (100-2,500 cells) of B-ALL PDX in transplant recipient mice): reduced the leukemia-initiation potential
weight loss / dose-limiting toxicity ([3]; treated NSG mice): did not show significant weight loss or other dose-limiting toxicity
β-catenin accumulation in non-targeted control colonies (β-catenin): induced accumulation of β-catenin in all 7 non-targeted control colonies
disease outcome in established SLE and RA (autoreactive B-cells): induce disease remission
IC50 in epithelial and myeloid cancer cells relative to B-ALL ([4]; 343 epithelial cancer cell lines (Prism Drug Repurposing Secondary Screen) vs B-ALL cell lines): 236 fold
IC50 in epithelial and myeloid cancer cells relative to B-cell lymphoma ([4]; 343 epithelial cancer cell lines (Prism Drug Repurposing Secondary Screen) vs B-cell lymphoma cell lines): 92 fold
adverse effects in clinical trials ([5]; Cmax micromolar): lymphopenia
Outcome: clinical responses ([5]; Phase 1 and 2): No clinical responses
Outcome: safety ([5]; Phase 1 and 2): Phase 1 and 2, favorable safety
Outcome: MTD ([5]; i.v.): 80 mg
safety and tolerability / PK/PD profile in clinical trials ([5]; micromolar plasma concentrations (Cmax)): demonstrated safety and tolerability at micromolar plasma concentrations
